This data set in a line: RP, Thermo Scientific Acclaim RSLC 120 C18, 100 × 2.1 mm, 2.2 µm, 30 °C, 0.2 mL/min, estimated dead time 1.1 min; A: 90% water + 10% methanol + 0.01% formic acid + 5 mM ammonium formate, pH 3.61; B: methanol + 0.01% formic acid + 5 mM ammonium formate, pH 3.61; gradient (min/%B) 0/1 1/1 2/39 13/99.9 15/99.9 15.1/1 20.1/1. As to conditions: stereoisomer not certain.

In the case of `Cc1cccc(C)c1NC(=O)C1CCCCN1C` (stereo not drawn) [Mepivacaine], the LC retention time was 4.66 min.
As for `CCCC(C)(COC(N)=O)COC(N)=O` [Meprobamate], the figure is 5.94 min.
Then `Cc1ccccc1C(=O)Nc1cccc(OC(C)C)c1` [Mepronil], with 9.62 min; and `CCC1(c2cccc(O)c2)CCCCN(C)C1` (stereo not drawn) [Meptazinol], with 4.74 min.
As for `c1ccc2c(c1)Sc1ccccc1N2CC1CN2CCC1CC2` (stereo not drawn) [Mequitazine], the figure is 8.29 min.
As to `S=C1N=CN=C2N=CN=C12` [Mercaptopurine (6-)], the LC retention time was 2.61 min.
Then `CC(O)C1C(=O)N2C(C(=O)O)=C(SC3CNC(C(=O)N(C)C)C3)C(C)C12` (stereo not drawn) [Meropenem], with 10.6 min; and `COc1cc(CCN)cc(OC)c1OC` [Mescaline], with 3.88 min.
As for `CC(Cc1ccccc1)N1C=C(NC(=O)N=C2C=CC(=O)C=C2)ON1` (stereo not drawn) [Mesocarb-P-Hydroxy], the figure is 7.24 min; as for `CN1CCCCC1CCN1c2ccccc2Sc2ccc(S(C)=O)cc21` (stereo not drawn) [Mesoridazine], 6.74 min; as for `COCC1CN=C(c2ccccc2Cl)c2cc(Br)ccc2N1C` (stereo not drawn) [Metaclazepam], 11.6 min.
As for `N#Cc1ccc(CC(=NNC(=O)Nc2ccc(OC(F)(F)F)cc2)c2cccc(C(F)(F)F)c2)cc1` [Metaflumizone], the figure is 12.1 min.
For the compound `COCC(=O)N(c1c(C)cccc1C)C(C)C(=O)OC` (stereo not drawn) [Metalaxyl], the LC retention time is 8.22 min.
Then `Cc1nnc(-c2ccccc2)c(=O)[nH]1` [Metamitron-desamino], with 5.29 min.
As for `Cc1nnc(-c2ccccc2)c(=O)n1N` [Metamitron], the figure is 5.24 min.
As for `Cc1cc(C)cc(OCC2CNC(=O)O2)c1` (stereo not drawn) [Metaxalone], the figure is 7.86 min; as for `Cc1cccc(C(=O)O)c1N(Cn1cccn1)C(=O)C(=O)O` [Metazachlor BH479-12], 4.42 min; as for `Cc1cccc(C)c1N(Cn1cccn1)C(=O)CS(=O)CC(=O)O` (stereo not drawn) [Metazachlor BH 479-9], 4.94 min.
For `Cc1cccc(C)c1N(Cn1cccn1)C(=O)CS(C)=O` (stereo not drawn) [Metazachlor BH 479-11], the LC retention time was 5.54 min.
As to `Cc1cccc(C)c1N(Cn1cccn1)C(=O)C(=O)O` [Metazachlor OA], the LC retention time was 5.09 min.
As for `Cc1cccc(C)c1N(Cn1cccn1)C(=O)CCl` [Metazachlor], the figure is 8.11 min.
Consider `CC1(C)CCC(Cc2ccc(Cl)cc2)C1(O)Cn1cncn1` (stereo not drawn) [Metconazole], for which the LC retention time was 11.2 min.
For the compound `CC(=O)OC1CCC2C3CCC4CC(=O)C=C(C)C4(C)C3CCC12C` (stereo not drawn) [Metenolone acetate], the LC retention time was 12.5 min.
Then `CN(C)C(=N)N=C(N)N` [Metformin], with 1.39 min.
As for `CNC(=O)N(C)c1nc2ccccc2s1` [Methabenzthiazuron], the figure is 8.26 min.
As for `C=C(C)C(N)=O` [Methacrylamide], the figure is 2.81 min.
For `CCC(=O)C(CCN(C)C)(c1ccccc1)c1ccccc1` [Methadone-Nor], the LC retention time is 7.68 min.
As for `CCC(=O)C(CC(C)N(C)C)(c1ccccc1)c1ccccc1` (stereo not drawn) [Methadone], the figure is 8.04 min.
Then `CN(C)CCN(Cc1cccs1)c1ccccc1` [Methaphenilene], with 6.32 min.
For the compound `Cc1ccccc1-n1c(C)nc2ccccc2c1=O` [Methaqualone], the LC retention time is 7.83 min.
Then `CC(=O)N=c1sc(S(N)(=O)=O)nn1C` [Methazolamide], with 4.28 min; and `CNC(C)C(=O)c1cccc(F)c1` (stereo not drawn) [Methcathinone (3-F-)], with 3.94 min; and `CNC(C)C(=O)c1ccc(F)cc1` (stereo not drawn) [Methcathinone (4-F-/ 4-FMC. Flephedrone)], with 3.91 min.
Then `CNC(C)C(=O)c1ccccc1` (stereo not drawn) [Methcathinone], with 3.68 min; and `CNC(C)C(=O)c1ccc(OC)cc1` (stereo not drawn) [Methedrone], with 4.16 min.
Then `Cc1oc(C)c(C(=O)Nc2ccccc2)c1C` [Methfuroxam], with 8.79 min.
For the compound `COc1nn(CSP(=S)(OC)OC)c(=O)s1` [Methidathion], the LC retention time is 8.7 min.
Consider `Cn1cc[nH]c1=S` [Methimazole], for which the LC retention time was 2.61 min.
With `CNC(=O)Oc1cc(C)c(SC)c(C)c1` [Methiocarb (Mercaptodimethur)], the LC retention time was 9.34 min.
As for `CNC(=O)Oc1cc(C)c(S(C)(=O)=O)c(C)c1` [Methiocarb-sulfone], the figure is 5.28 min.
In the case of `Cc1cc(O)cc(C)c1S(C)=O` (stereo not drawn) [Methiocarb-sulfoxide phenol], the LC retention time is 4.63 min.
As for `CNC(=O)Oc1cc(C)c(S(C)=O)c(C)c1` (stereo not drawn) [Methiocarb-sulfoxide], the figure is 4.86 min; as for `CNC(C)Cc1cccs1` (stereo not drawn) [Methiopropamine], 3.69 min.
Then `COc1ccccc1OCC(O)COC(N)=O` (stereo not drawn) [Methocarbamol], with 5.21 min; and `C=CCC1(C(C)C#CCC)C(=O)NC(=O)N(C)C1=O` (stereo not drawn) [Methohexital], with 9.09 min.
Regarding `CNC(=O)ON=C(C)SC` [Methomyl], the LC retention time is 4.16 min.
For `COC(C)(C)CCCC(C)CC=CC(C)=CC(=O)OC(C)C` (stereo not drawn) [Methoprene], the LC retention time is 13.6 min.
Then `COCCCNc1nc(NC(C)C)nc(SC)n1` [Methoprotryne], with 9.14 min; and `CN(Cc1cnc2nc(N)nc(N)c2n1)c1ccc(C(=O)NC(CCC(=O)O)C(=O)O)cc1` (stereo not drawn) [Methotrexate], with 3.96 min.
As for `CCNC1(c2cccc(OC)c2)CCCCC1=O` (stereo not drawn) [Methoxetamine], the figure is 4.93 min; as for `COc1cccc(C(=O)NN(C(=O)c2cc(C)cc(C)c2)C(C)(C)C)c1C` [Methoxyfenozide], 9.56 min.
As for `CNC(C)Cc1ccccc1OC` (stereo not drawn) [Methoxyphenamine], the LC retention time is 4.69 min.
As for `CN1C(=O)CC(C)(c2ccccc2)C1=O` (stereo not drawn) [Methsuximide], the figure is 6.71 min.
Consider `CNc1c(C)n(C)n(-c2ccccc2)c1=O` [Methylaminophenazone (4-)], for which the LC retention time was 4.74 min.
With `CC(C(O)c1ccccc1)N(C)C` (stereo not drawn) [Methylephedrine], the LC retention time is 3.73 min.
`CNC(C)C(=O)c1ccc2c(c1)OCO2` (stereo not drawn) [Methylone (MDMC)]: the LC retention time is 3.81 min.
For `COC(=O)c1ccc(O)cc1` [Methylparaben], the LC retention time was 6 min.
Then `COC(=O)C(c1ccccc1)C1CCCCN1` (stereo not drawn) [Methylphenidate], with 4.96 min.
Then `CC(=O)Oc1c(C)cc(OCC(O)CNC(C)C)c(C)c1C` (stereo not drawn) [Metipranolol], with 6.28 min.
Then `CN1CCCC(CC2c3ccccc3Sc3ccccc32)C1` (stereo not drawn) [Metixene], with 8.51 min; and `CCc1cc2c(s1)-n1cnnc1CN=C2c1ccccc1Cl` [Metizolam (Desmethyletizolam)], with 7.93 min.
For the compound `CON(C)C(=O)Nc1ccc(Br)cc1` [Metobromuron], the LC retention time was 8.15 min.
Regarding `CCN(CC)CCNC(=O)c1cc(Cl)c(N)cc1OC` [Metoclopramide], the LC retention time was 4.36 min.
As for `CCc1cccc(C)c1N(C(=O)CS(=O)(=O)O)C(C)COC` (stereo not drawn) [Metolachlor-ESA], the figure is 7.34 min; as for `CCc1cccc(C)c1N1C(=O)COCC1C` (stereo not drawn) [Metolachlor-morpholinon], 7.89 min; as for `CCc1cccc(C)c1N(C(=O)CCl)C(C)COC` (stereo not drawn) [Metolachlor], 10.3 min.
As for `Cc1ccccc1N1C(=O)c2cc(S(N)(=O)=O)c(Cl)cc2NC1C` (stereo not drawn) [Metolazone], the figure is 6.08 min; as for `CNC(=O)Oc1cccc(C)c1` [Metolcarb], 6.59 min; as for `COc1cc(OC)n2nc(S(=O)(=O)Nc3c(Cl)ccc(C)c3Cl)nc2n1` [Metosulam], 7.1 min.
Then `COc1ccc(NC(=O)N(C)C)cc1Cl` [Metoxuron], with 6.17 min.
As for `COc1cc(C)c(C(=O)c2c(OC)ccc(Br)c2C)c(OC)c1OC` [Metrafenone], the LC retention time was 11.4 min.
As for `CSc1nnc(C(C)(C)C)c(=O)[nH]1` [Metribuzin-Desamino (DA)], the figure is 7.46 min; as for `CC(C)(C)c1n[nH]c(=O)n(N)c1=O` [Metribuzin-Diketo (DK)], 5.89 min; as for `CSc1nnc(C(C)(C)C)c(=O)n1N` [Metribuzin], 7.07 min.
As for `Cc1nc([N+](=O)[O-])cn1CCO` [Metronidazole], the figure is 3.58 min; as for `COC(=O)c1ccccc1S(=O)(=O)NC(=O)Nc1nc(C)nc(OC)n1` [Metsulfuron-methyl], 6.31 min; as for `CC(C)(C(=O)c1cccnc1)c1cccnc1` [Metyrapone], 6.21 min.
Turning to `CNC(=O)Oc1cc(C)c(N(C)C)c(C)c1` [Mexacarbate], the LC retention time is 9.3 min.
As for `Cc1cccc(C)c1OCC(C)N` (stereo not drawn) [Mexiletine], the figure is 5.59 min; as for `C[N+]1([O-])CCN2c3ccccc3Cc3ccccc3C2C1` (stereo not drawn) [Mianserine-N-oxide], 7.63 min.
As for `c1ccc2c(c1)Cc1ccccc1N1CCNCC21` (stereo not drawn) [Mianserine-Nor], the figure is 6.86 min; as for `CN1CCN2c3ccccc3Cc3ccccc3C2C1` (stereo not drawn) [Mianserine], 6.94 min.
As to `Clc1ccc(COC(Cn2ccnc2)c2ccc(Cl)cc2Cl)c(Cl)c1` (stereo not drawn) [Miconazole], the LC retention time is 13 min.

(Values after the RepoRT retention time repository (doi:10.1021/acs.analchem.2c02893).)
